Experimental data as given in paper PMC12484723, “COOKIE-Pro: covalent inhibitor binding kinetics profiling on the proteome scale” (Nature Communications, 2025).

Experiments:
BLK = BLK (Homo sapiens, UniProt P51451); test: COOKIE-Pro competition chemoproteomics in permeabilized Ramos cells (kinact, KI); type: cell-based
TEC kinase = target: T1, TEC kinase (Homo sapiens, UniProt P42680); test: as above; type: cell-based
T1 sequence (P42680 1-631): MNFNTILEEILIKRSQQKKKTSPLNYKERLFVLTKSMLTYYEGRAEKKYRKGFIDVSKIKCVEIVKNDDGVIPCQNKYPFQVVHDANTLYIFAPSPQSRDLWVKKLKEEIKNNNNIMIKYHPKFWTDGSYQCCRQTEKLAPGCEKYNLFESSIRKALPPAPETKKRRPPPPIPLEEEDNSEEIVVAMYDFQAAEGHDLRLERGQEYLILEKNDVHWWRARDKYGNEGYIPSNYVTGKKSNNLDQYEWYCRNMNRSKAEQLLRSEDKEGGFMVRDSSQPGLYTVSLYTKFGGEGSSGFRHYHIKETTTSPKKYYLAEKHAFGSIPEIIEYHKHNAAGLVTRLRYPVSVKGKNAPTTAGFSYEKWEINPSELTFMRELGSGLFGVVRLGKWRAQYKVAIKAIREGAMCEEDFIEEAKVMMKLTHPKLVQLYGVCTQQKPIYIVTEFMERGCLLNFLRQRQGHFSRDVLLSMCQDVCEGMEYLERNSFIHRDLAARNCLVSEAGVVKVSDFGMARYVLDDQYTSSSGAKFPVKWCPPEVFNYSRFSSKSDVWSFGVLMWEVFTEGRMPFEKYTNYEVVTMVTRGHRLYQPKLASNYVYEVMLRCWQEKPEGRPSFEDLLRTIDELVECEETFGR

Sequence of BLK (P51451 2-505): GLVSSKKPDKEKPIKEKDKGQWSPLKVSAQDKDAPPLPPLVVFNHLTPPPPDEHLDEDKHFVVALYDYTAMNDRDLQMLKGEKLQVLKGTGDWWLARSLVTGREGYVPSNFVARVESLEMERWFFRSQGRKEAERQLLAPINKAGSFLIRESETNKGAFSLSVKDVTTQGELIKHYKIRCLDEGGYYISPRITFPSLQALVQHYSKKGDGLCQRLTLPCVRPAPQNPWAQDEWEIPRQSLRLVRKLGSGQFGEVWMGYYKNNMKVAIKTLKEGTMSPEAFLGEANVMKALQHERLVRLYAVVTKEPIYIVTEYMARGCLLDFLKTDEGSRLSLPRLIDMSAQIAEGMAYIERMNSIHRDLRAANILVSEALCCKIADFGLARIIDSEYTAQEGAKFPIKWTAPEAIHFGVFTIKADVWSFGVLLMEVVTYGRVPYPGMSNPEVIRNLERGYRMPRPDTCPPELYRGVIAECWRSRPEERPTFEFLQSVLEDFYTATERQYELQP

KI (inactivation) (BLK): 0.028 µM
KI (inactivation) (TEC kinase): 0.233 µM
Structure (SMILES): C=CC(=O)N1CCC[C@@H](n2nc(-c3ccc(Oc4ccccc4)cc3)c3c(N)ncnc32)C1 [ibrutinib]
